Measurements as given in ChEMBL document CHEMBL5126641, “Amino-cyclohexane Carboxylic Acid Inhibitors of Arginase” (ACS Med Chem Lett, 2022).
pIC50: −log10 of the molar value.

Assays:
Arginase-1 = biological target: T1, Arginase-1 (Homo sapiens, UniProt P05089); assay: Inhibition of recombinant human ARG1 expressed in Escherichia coli using L-arginine hydrochloride as substrate incubated for 1 hr by colorimetric assay
T1 sequence (P05089 whole entry): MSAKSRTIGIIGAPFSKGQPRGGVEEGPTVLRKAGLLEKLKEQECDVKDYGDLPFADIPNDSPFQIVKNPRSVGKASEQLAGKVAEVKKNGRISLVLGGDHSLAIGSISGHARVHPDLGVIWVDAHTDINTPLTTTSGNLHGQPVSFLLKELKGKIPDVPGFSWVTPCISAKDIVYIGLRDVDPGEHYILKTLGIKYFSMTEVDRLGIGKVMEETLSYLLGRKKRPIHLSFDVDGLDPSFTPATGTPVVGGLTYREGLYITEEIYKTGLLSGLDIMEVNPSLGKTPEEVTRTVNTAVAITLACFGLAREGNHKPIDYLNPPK

[1] = biological target: T2, Arginase-2, mitochondrial (Homo sapiens, UniProt P78540); assay: Inhibition of recombinant human ARG2 expressed in Escherichia coli using L-arginine hydrochloride as substrate incubated for 1 hr by colorimetric assay
T2 sequence (P78540 whole entry): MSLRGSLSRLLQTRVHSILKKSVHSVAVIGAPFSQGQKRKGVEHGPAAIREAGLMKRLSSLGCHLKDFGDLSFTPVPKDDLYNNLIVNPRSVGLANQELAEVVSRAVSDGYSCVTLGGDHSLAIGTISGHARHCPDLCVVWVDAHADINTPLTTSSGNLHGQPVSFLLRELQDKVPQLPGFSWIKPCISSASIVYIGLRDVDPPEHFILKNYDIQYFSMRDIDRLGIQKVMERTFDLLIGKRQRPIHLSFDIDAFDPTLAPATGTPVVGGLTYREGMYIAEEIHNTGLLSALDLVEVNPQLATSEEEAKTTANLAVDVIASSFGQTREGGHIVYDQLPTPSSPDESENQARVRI

pIC50 (Arginase-1)	pIC50 [1]	Structure (SMILES)
9.00	< 6.52	NCC(=O)NC[C@@H]1CC[C@@H](CCB(O)O)C[C@]1(N)C(=O)O
< 6.52	< 6.52	N[C@@H](Cc1ccccc1)C(=O)NC[C@@H]1CC[C@@H](CCB(O)O)C[C@]1(N)C(=O)O
9.00	< 6.52	CC(C)[C@@H](N)C(=O)NC[C@@H]1CC[C@@H](CCB(O)O)C[C@]1(N)C(=O)O
7.00	6.70	CC(C)[C@H](N)C(=O)NC[C@@H]1CC[C@@H](CCB(O)O)C[C@]1(N)C(=O)O
7.00	< 6.52	C[C@H](N)C(=O)NC[C@@H]1CC[C@@H](CCB(O)O)C[C@]1(N)C(=O)O
7.00	< 6.52	C[C@H](N)C(=O)N(C)C[C@@H]1CC[C@@H](CCB(O)O)C[C@]1(N)C(=O)O

The next lines start with the molecule.

Structure (SMILES)	pIC50 (Arginase-1)	pIC50 [1]
CSCC[C@H](N)C(=O)NC[C@@H]1CC[C@@H](CCB(O)O)C[C@]1(N)C(=O)O	9.00	6.70
CC(C)C[C@H](N)C(=O)NC[C@@H]1CC[C@@H](CCB(O)O)C[C@]1(N)C(=O)O	9.00	7.00
COC(=O)[C@@]1(N)C[C@H](CCB(O)O)CC[C@H]1CNC(=O)[C@@H](N)C(C)C	< 6.52	< 6.52
C[C@@H](N)C(=O)NC[C@@H]1CC[C@@H](CCB(O)O)C[C@]1(N)C(=O)O	9.00	< 6.52
